Patent US10494360B2, “Inhibitors of indoleamine 2,3-dioxygenase” (NETHERLANDS TRANSLATIONAL RESEARCH CENTER B.V., priority 2016, dated 2019)
“And” between values parts separate entries of the source, which are not always exact repeats. Equal values may be shown once.

What follows are molecules tested against IDO1 (Homo sapiens, UniProt P14902) (assay: Biochemical IDO1 assay (NFK GreenScreen)). Conditions: less active / most active isomer of the pair; assay not given.
Parameters: Recombinant full-length IDO1 (Seegers, N., et al.) and all other assay components were diluted in IDO1 reaction buffer; made in house
Method: Inhibition of IDO1 activity can be measured by determining the enzymatic conversion of L-tryptophan into N-formylkynurenine (NFK) in a reaction mixture containing IDO1 and test compound. The formation of NFK can be detected directly by, for instance, high-performance liquid chromatography (HPLC) methods, or by intrinsic fluorescence.
Compounds were serially diluted in dimethylsulfoxide (DMSO) and finally in IDO1 reaction buffer, consisting of 50 mM NaH2PO4, pH7.0, supplemented with 0.05% Tween-20 (cat. No. P7949; Sigma Aldrich) and 1% glycerol. Recombinant full-length IDO1 (Seegers, N., et al.) and all other assay components were diluted in IDO1 reaction buffer. […] Subsequently, 10 μl of 0.4 mM of the substrate L-tryptophan was added, i.e., the final concentration of L-tryptophan was 100 μM. The DMSO concentration in the assay was 0.3%. […] Incubation was continued for 60 min at room temperature. Then, 10 μl of NFK Green™ (NTRC, Oss, The Netherlands) was added, the plate was sealed, and the reaction was developed for 3 hours at 37° C. To determine the production of N-formyl kynurenine (NFK), the seal was removed and fluorescence was read on an EnVision multimode reader (Perkin Elmer, Waltham, Mass., USA). IC50 were calculated using XLfit™ software (ID Business Solutions, Ltd., Surrey, U.K.).

Chain of IDO1 (P14902 whole entry, species assumed): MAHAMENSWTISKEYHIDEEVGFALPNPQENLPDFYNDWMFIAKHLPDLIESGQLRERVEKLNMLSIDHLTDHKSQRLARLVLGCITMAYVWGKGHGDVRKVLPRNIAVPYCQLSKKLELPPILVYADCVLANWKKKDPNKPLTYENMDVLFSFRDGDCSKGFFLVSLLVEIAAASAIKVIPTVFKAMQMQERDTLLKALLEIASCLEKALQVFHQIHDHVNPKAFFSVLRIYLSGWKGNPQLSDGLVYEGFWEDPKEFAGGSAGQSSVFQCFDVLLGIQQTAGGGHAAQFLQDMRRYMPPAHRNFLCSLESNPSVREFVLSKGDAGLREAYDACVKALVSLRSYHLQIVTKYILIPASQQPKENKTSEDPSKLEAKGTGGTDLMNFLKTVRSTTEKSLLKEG

relative activity of separated isomers | SMILES
most active isomer | O=C1CN(Cc2ccccc2F)C(c2cccc(I)c2)N1O (single isomer, unassigned) [Example 146b, 1-[(2-fluorophenyl)methyl]-3-hydroxy-2-(3-iodophenyl)imidazolidin-4-one]
most active isomer | NS(=O)(=O)NCC#Cc1cc(F)c(C(=O)N2CC(=O)N(O)C2c2cccc(Br)c2)c(F)c1 (single isomer, unassigned) [Example 147b, 2-(3-bromophenyl)-1-[2,6-difluoro-4-[3-(sulfamoylamino)prop-1-ynyl]benzoyl]-3-hydroxy-4-oxo-imidazolidine]
most active isomer | O=C1CN(C(=O)c2c(F)cccc2Cl)C(c2ccc(F)c(Br)c2)N1O (single isomer, unassigned) [Example 143b, 2-(3-bromo-4-fluoro-phenyl)-1-(2-chloro-6-fluoro-benzoyl)-3-hydroxy-imidazolidin-4-one]

Same assay, conditions: recombinant full-length IDO1 25 nM, L-tryptophan 100 μM, NFK Green detection; read-out: IC50, inhibitory potency on IDO1

SMILES | IC50
NS(=O)(=O)NCCCc1cc(F)c(C(=O)N2CC(=O)N(O)C2c2cccc(Br)c2)c(F)c1 (stereo not drawn) [Example 132, 2-(3-Bromophenyl)-1-[2,6-difluoro-4-[3-(sulfamoylamino)propyl]benzoyl]-3-hydroxy-4-oxo-imidazolidine] | ≤ 1000 nM
O=C1CN(C(=O)c2c(F)cccc2F)C(c2cccc(Br)c2F)N1O (stereo not drawn) [Example 70, 2-(3-Bromo-2-fluoro-phenyl)-1-(2,6-difluorobenzoyl)-3-hydroxy-imidazolidin-4-one] | ≤ 5000 nM and 1000 to 5000 nM
CS(=O)(=O)Nc1ccc(F)c(C(=O)N2CC(=O)N(O)C2c2cccc(Br)c2)c1F (stereo not drawn) [Example 78, N-[3-[2-(3-bromophenyl)-3-hydroxy-4-oxo-imidazolidine-1-carbonyl]-2,4-difluoro-phenyl]methanesulfonamide] | ≤ 5000 nM and 1000 to 5000 nM
COc1ccc(C(=O)N2CC(=O)N(O)C2c2cccc(Br)c2)cc1 (stereo not drawn) [Example 18, 2-(3-Bromophenyl)-3-hydroxy-1-(4-methoxybenzoyl)imidazolidin-4-one] | ≤ 5000 nM and 1000 to 5000 nM
O=C1CN(C(=O)c2c(F)cccc2F)C(c2ccnc(Br)c2)N1O (stereo not drawn) [Example 65, 2-(2-Bromo-4-pyridyl)-1-(2,6-difluorobenzoyl)-3-hydroxy-imidazolidin-4-one] | ≤ 5000 nM and 1000 to 5000 nM
O=C1CN(C(=O)c2cccnc2Cl)C(c2cccc(Br)c2)N1O (stereo not drawn) [Example 61, 2-(3-Bromophenyl)-1-(2-chloropyridine-3-carbonyl)-3-hydroxy-imidazolidin-4-one] | ≤ 5000 nM and 1000 to 5000 nM
NS(=O)(=O)NCC#Cc1cc(F)c(C(=O)N2CC(=O)N(O)C2c2cccc(Br)c2)c(F)c1 (stereo not drawn) [Example 111, 2-(3-Bromophenyl)-1-[2,6-difluoro-4-[3-(sulfamoylamino)prop-1-ynyl]benzoyl]-3-hydroxy-4-oxo-imidazolidine] | ≤ 1000 nM
NCC#Cc1cc(F)c(C(=O)N2CC(=O)N(O)C2c2cccc(Br)c2)c(F)c1 (stereo not drawn) [Example 109, 1-[4-(3-Aminoprop-1-ynyl)-2,6-difluoro-benzoyl]-2-(3-bromophenyl)-3-hydroxy-imidazolidin-4-one] | ≤ 1000 nM
O=C1CN(C(=O)c2ccccc2)C(c2ccc(F)c(Cl)c2)N1O (stereo not drawn) [Example 50, 1-Benzoyl-2-(3-chloro-4-fluoro-phenyl)-3-hydroxy-imidazolidin-4-one] | ≤ 5000 nM and 1000 to 5000 nM
O=C1CN(C(=O)c2c(F)cc(-c3ccccc3)cc2F)C(c2cccc(Br)c2)N1O (stereo not drawn) [Example 117, 2-(3-Bromophenyl)-1-(2,6-difluoro-4-phenyl-benzoyl)-3-hydroxy-imidazolidin-4-one] | ≤ 1000 nM
CC(C)c1cc(C(=O)N2CC(=O)N(O)C2c2cccc(Br)c2)no1 (stereo not drawn) [Example 96, 2-(3-Bromophenyl)-3-hydroxy-1-(5-isopropylisoxazole-3-carbonyl)imidazolidin-4-one] | ≤ 5000 nM and 1000 to 5000 nM

Continued, values first:

IC50 | SMILES
≤ 1000 nM | O=C1CN(Cc2ccccc2F)C(c2cccc(I)c2)N1O (single isomer, unassigned) [Example 146b, 1-[(2-fluorophenyl)methyl]-3-hydroxy-2-(3-iodophenyl)imidazolidin-4-one]
≤ 1000 nM | O=C1CN(C(=O)c2ccccc2)C(c2cccc(Br)c2)N1O (single isomer, unassigned) [Example 63a, 1-benzoyl-2-(3-bromophenyl)-3-hydroxy-imidazolidin-4-one]
≤ 1000 nM | NS(=O)(=O)NCC#Cc1cc(F)c(C(=O)N2CC(=O)N(O)C2c2cccc(Br)c2)c(F)c1 (single isomer, unassigned) [Example 147b, 2-(3-bromophenyl)-1-[2,6-difluoro-4-[3-(sulfamoylamino)prop-1-ynyl]benzoyl]-3-hydroxy-4-oxo-imidazolidine]
≤ 1000 nM | O=C1CN(C(=O)c2c(F)cccc2Cl)C(c2ccc(F)c(Br)c2)N1O (single isomer, unassigned) [Example 143b, 2-(3-bromo-4-fluoro-phenyl)-1-(2-chloro-6-fluoro-benzoyl)-3-hydroxy-imidazolidin-4-one]
